Source: PubChem BioAssay (NCI)
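Assay format: 96-well plates, 48-hour exposure. At the GI50, growth is halved. TGI marks complete inhibition of growth.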

What was measured:
Experiment in all cases: DTP human tumour cell line panel, 48 h; in the data active means GI50 below about 0.43 µM; inactive means the rest
SK-MEL-2 melanoma = tested on: SK-MEL-2 melanoma
COLO 205 colon = tested on: COLO 205 colon
OVCAR-3 ovarian = tested on: OVCAR-3 ovarian
SR leukemia = tested on: SR leukemia
OVCAR-5 ovarian = tested on: OVCAR-5 ovarian
HOP-92 NSCLC = tested on: HOP-92 NSCLC
BT-549 breast = tested on: BT-549 breast
DU-145 prostate = tested on: DU-145 prostate
T-47D breast = tested on: T-47D breast
A498 renal = tested on: A498 renal
M14 melanoma = tested on: M14 melanoma
TK-10 renal = tested on: TK-10 renal
ACHN renal = tested on: ACHN renal
CCRF-CEM leukemia = tested on: CCRF-CEM leukemia
MALME-3M melanoma = tested on: MALME-3M melanoma
SW-620 colon = tested on: SW-620 colon
SN12C renal = tested on: SN12C renal
MCF7 breast = tested on: MCF7 breast
NCI-H522 lung = tested on: NCI-H522 lung
SK-OV-3 ovarian = tested on: SK-OV-3 ovarian
K-562 leukemia = tested on: K-562 leukemia
UACC-62 melanoma = tested on: UACC-62 melanoma
UO-31 renal = tested on: UO-31 renal
LOX IMVI melanoma = tested on: LOX IMVI melanoma
CAKI-1 renal = tested on: CAKI-1 renal
MDA-MB-435 = tested on: MDA-MB-435
HOP-62 NSCLC = tested on: HOP-62 NSCLC
U251 CNS = tested on: U251 CNS
UACC-257 melanoma = tested on: UACC-257 melanoma
NCI-H23 lung = tested on: NCI-H23 lung
HS 578T breast = tested on: HS 578T breast
NCI-H226 lung = tested on: NCI-H226 lung
MDA-MB-231 breast = tested on: MDA-MB-231 breast
SK-MEL-28 melanoma = tested on: SK-MEL-28 melanoma
A549 NSCLC = tested on: A549 NSCLC
OVCAR-8 ovarian = tested on: OVCAR-8 ovarian
HCT-15 colon = tested on: HCT-15 colon
HT29 colon = tested on: HT29 colon
NCI-H460 lung = tested on: NCI-H460 lung
786-0 renal = tested on: 786-0 renal
RPMI-8226 leukemia = tested on: RPMI-8226 leukemia
SNB-19 CNS = tested on: SNB-19 CNS
NCI/ADR-RES ovarian = tested on: NCI/ADR-RES ovarian
EKVX NSCLC = tested on: EKVX NSCLC
MOLT-4 leukemia = tested on: MOLT-4 leukemia
HCC-2998 colon = tested on: HCC-2998 colon
HCT-116 colon = tested on: HCT-116 colon
SF-268 CNS = tested on: SF-268 CNS
PC-3 prostate = tested on: PC-3 prostate
KM12 colon = tested on: KM12 colon
OVCAR-4 ovarian = tested on: OVCAR-4 ovarian
SK-MEL-5 melanoma = tested on: SK-MEL-5 melanoma
IGROV1 ovarian = tested on: IGROV1 ovarian

COc1ccc2nc(NC(=O)COc3cc(/C=C\c4cc(OC)c(OC)c(OC)c4)ccc3OC)sc2c1
21.2 µM: TGI (KM12 colon)
5.02 µM: TGI (OVCAR-3 ovarian)
38.4 µM: TGI (SK-MEL-5 melanoma)
6.96 µM: TGI (DU-145 prostate)
inactive: GI50 (SK-MEL-2 melanoma) 4.07 µM | GI50 (COLO 205 colon) 3.89 µM | GI50 (OVCAR-3 ovarian) 2.17 µM | GI50 (SR leukemia) 3.69 µM | GI50 (OVCAR-5 ovarian) 5.89 µM | GI50 (HOP-92 NSCLC) 6.28 µM | GI50 (BT-549 breast) 21.2 µM | GI50 (DU-145 prostate) 2.04 µM | GI50 (T-47D breast) 4.03 µM | GI50 (A498 renal) 3.5 µM | GI50 (M14 melanoma) 4.33 µM | GI50 (TK-10 renal) 7.54 µM | GI50 (ACHN renal) 7.77 µM | GI50 (CCRF-CEM leukemia) 3.87 µM | GI50 (MALME-3M melanoma) > 100 µM | GI50 (SW-620 colon) 5.1 µM | GI50 (SN12C renal) 5.75 µM | GI50 (MCF7 breast) 2.88 µM | GI50 (NCI-H522 lung) 3.09 µM | GI50 (SK-OV-3 ovarian) 4.69 µM | GI50 (K-562 leukemia) 3.6 µM | GI50 (UACC-62 melanoma) 5.93 µM | GI50 (UO-31 renal) 4.31 µM | GI50 (LOX IMVI melanoma) 4.17 µM | GI50 (CAKI-1 renal) 3.2 µM | GI50 (MDA-MB-435) 1.16 µM | GI50 (HOP-62 NSCLC) 23.3 µM | GI50 (U251 CNS) 4 µM | GI50 (UACC-257 melanoma) 63.9 µM | GI50 (NCI-H23 lung) 3.91 µM | GI50 (HS 578T breast) 4.15 µM | GI50 (NCI-H226 lung) 4.51 µM | GI50 (MDA-MB-231 breast) 5.4 µM | GI50 (SK-MEL-28 melanoma) 4.41 µM | GI50 (A549 NSCLC) 5.18 µM | GI50 (OVCAR-8 ovarian) 5.28 µM | GI50 (HCT-15 colon) 2.89 µM | GI50 (HT29 colon) 3.34 µM | GI50 (NCI-H460 lung) 3.73 µM | GI50 (786-0 renal) 7.52 µM | GI50 (RPMI-8226 leukemia) 5.43 µM | GI50 (SNB-19 CNS) 6.3 µM | GI50 (NCI/ADR-RES ovarian) 2.3 µM | GI50 (EKVX NSCLC) 5.11 µM | GI50 (MOLT-4 leukemia) 3.87 µM | GI50 (HCC-2998 colon) 7.35 µM | GI50 (HCT-116 colon) 3.7 µM | GI50 (SF-268 CNS) 4.31 µM | GI50 (PC-3 prostate) 4.45 µM | GI50 (KM12 colon) 3.12 µM | GI50 (OVCAR-4 ovarian) 5.31 µM | GI50 (SK-MEL-5 melanoma) 2.68 µM | GI50 (IGROV1 ovarian) 7 µM
6.44 µM: TGI (MDA-MB-435)
7.46 µM: TGI (NCI/ADR-RES ovarian)
> 100 µM: TGI (SK-MEL-2 melanoma) | TGI (COLO 205 colon) | TGI (SR leukemia) | TGI (OVCAR-5 ovarian) | TGI (HOP-92 NSCLC) | TGI (BT-549 breast) | TGI (T-47D breast) | TGI (A498 renal) | TGI (M14 melanoma) | TGI (TK-10 renal) | TGI (ACHN renal) | TGI (CCRF-CEM leukemia) | TGI (MALME-3M melanoma) | TGI (SW-620 colon) | TGI (SN12C renal) | TGI (MCF7 breast) | TGI (NCI-H522 lung) | TGI (SK-OV-3 ovarian) | TGI (K-562 leukemia) | TGI (UACC-62 melanoma) | TGI (UO-31 renal) | TGI (LOX IMVI melanoma) | TGI (CAKI-1 renal) | TGI (HOP-62 NSCLC) | TGI (U251 CNS) | TGI (UACC-257 melanoma) | TGI (NCI-H23 lung) | TGI (HS 578T breast) | TGI (NCI-H226 lung) | TGI (MDA-MB-231 breast) | TGI (SK-MEL-28 melanoma) | TGI (A549 NSCLC) | TGI (OVCAR-8 ovarian) | TGI (HCT-15 colon) | TGI (HT29 colon) | TGI (NCI-H460 lung) | TGI (786-0 renal) | TGI (RPMI-8226 leukemia) | TGI (SNB-19 CNS) | TGI (EKVX NSCLC) | TGI (MOLT-4 leukemia) | TGI (HCC-2998 colon) | TGI (HCT-116 colon) | TGI (SF-268 CNS) | TGI (PC-3 prostate) | TGI (OVCAR-4 ovarian) | TGI (IGROV1 ovarian)
